In patent EP4603105A1, “PHARMACEUTICAL COMPOSITION CONTAINING CYCLIC COMPOUND HAVING SELECTIVE KRAS INHIBITORY EFFECT AGAINST HRAS AND NRAS” (CHUGAI SEIYAKU KABUSHIKI KAISHA, priority 2022, dated 2024):
Where a SMILES comes first, the peptide text is derived from it. Bridges are numbered along the chain shown (N, C = ends). [ ]: non-standard residue; d: D form. The star is where a group is joined. hPhe(3-Cl-4-CF3) = N[C@@H](CCc1ccc(C(F)(F)F)c(Cl)c1)C(=O)O; NPrPhe(4-CF3) = CCCN[C@@H](Cc1ccc(C(F)(F)F)cc1)C(=O)O; Pip(4,4-F2) = O=C(O)[C@@H]1CC(F)(F)CCN1; NMeGly(cPent) = CN[C@H](C(=O)O)C1CCCC1; NMeChg = CN[C@H](C(=O)O)C1CCCCC1; NMeD = CN[C@@H](CC(=O)O)C(=O)O; NMeL = CN[C@@H](CC(C)C)C(=O)O; Morpholide = C1CN(*)CCO1; Piperidide = C1CCN(*)CC1; Ac5c = NC1(C(=O)O)CCCC1; Aze = O=C(O)[C@@H]1CCN1; Ac4c = NC1(C(=O)O)CCC1; Sar = CNCC(=O)O

Legend:
[1] = molecular target: HRAS wild-type protein (Homo sapiens, UniProt P01112); assay: Binding to HRAS by surface plasmon resonance (SPR), KD and KD ratio to KRAS
Chain of HRAS wild-type protein (P01112 whole entry): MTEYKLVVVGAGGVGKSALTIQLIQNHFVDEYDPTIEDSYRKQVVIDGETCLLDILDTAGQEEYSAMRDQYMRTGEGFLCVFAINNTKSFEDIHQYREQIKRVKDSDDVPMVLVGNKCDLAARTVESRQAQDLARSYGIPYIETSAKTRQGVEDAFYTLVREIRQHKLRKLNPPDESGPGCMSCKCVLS
Summary of the method: (§1)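 Biotinylated GDP-bound RAS was captured at about 100–300 RU. Running buffer: HBS pH 7.4, 10 mM MgCl2, 10 µM GDP, 1 mM DTT, 0.01% Tween 20, 4% DMSO.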

[2] = system: human lung cancer strain NCI-H441; format: cell-based
Summary of the method: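 Step one: dispense the test compound in serial DMSO dilutions. Step three: add the reagent and measure […].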

[3] = molecular target: GDP-bound NRAS wild-type protein (Homo sapiens, UniProt P01111); assay: Binding to NRAS by surface plasmon resonance (SPR), KD and KD ratio to KRAS
Chain of GDP-bound NRAS wild-type protein (P01111 whole entry): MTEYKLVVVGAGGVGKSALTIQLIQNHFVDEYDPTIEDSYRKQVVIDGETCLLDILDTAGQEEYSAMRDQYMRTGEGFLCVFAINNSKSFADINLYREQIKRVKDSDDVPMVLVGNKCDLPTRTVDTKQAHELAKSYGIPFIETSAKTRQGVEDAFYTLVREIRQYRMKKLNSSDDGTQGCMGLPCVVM
Summary of the method: as §1

[4] = ratio of the KD value with respect to HRAS wild-type protein to the KD value with respect to KRAS
[5] = ratio of the KD value with respect to GDP-bound NRAS wild-type protein to the KD value with respect to KRAS
[6] = ratio of KD for HRAS wild-type protein to KD for KRAS
[7] = ratio of KD for GDP-bound NRAS wild-type protein to KD for KRAS
[8] = ratio of KD value for HRAS wild-type protein to KD value for KRAS (SPR)
[9] = ratio of KD value for GDP-bound NRAS wild-type protein to KD value for KRAS (SPR)

SMILES	HRAS /KRAS [1, 4]	IC50 [2]	NRAS /KRAS [3, 5]	HRAS /KRAS [1, 6]	NRAS /KRAS [3, 7]	HRAS /KRAS [1, 8]	NRAS /KRAS [3, 9]
CCO[C@@H]1C[C@H]2C(=O)NC3(CC(C)(C)C3)C(=O)N(CC)[C@@H](C3CCCC3)C(=O)N(C)[C@H](C(=O)N(C)C)CC(=O)N(C)[C@@H](CC)C(=O)N[C@@H]([C@@H](C)CC)C(=O)N(C)CC(=O)N(C)[C@H]3C/C=C\CCN(C3=O)[C@@H](Cc3ccc(C(F)(F)F)cc3)C(=O)N(C)CC(=O)N[C@@H](CCc3cc(F)c(C(F)(F)F)c(F)c3)C(=O)N2C1 [PP1913]	A (a compound having 10 or more and less than 20 is denoted as A)	44 nM	A (a compound having 10 or more and less than 20 is denoted as A)				
CCC[C@H]1C(=O)N[C@@H]([C@@H](C)CC)C(=O)N(C)CC(=O)N(C)[C@H]2C/C=C\CCN(C2=O)[C@@H](Cc2ccc(C(F)(F)F)cc2)C(=O)N(C)CC(=O)N[C@@H](CCc2ccc(Cl)c(C(F)(F)F)c2)C(=O)N2C[C@H](OCC)C[C@H]2C(=O)NC2(CC(C)(C)C2)C(=O)N(C)[C@@H](C(CC)CC)C(=O)N(C)[C@H](C(=O)N(C)C)CC(=O)N1C [PP2785]		10.5 nM		A (a compound having 10 or more and less than 20 is denoted as A)	AA (a compound having 20 or more is denoted as AA)		
CCCOC[C@H]1C(=O)N[C@@H]([C@@H](C)CC)C(=O)N2CCC[C@H]2C(=O)N(C)[C@H]2C/C=C\CCN(C2=O)[C@@H](Cc2ccc(C)cc2)C(=O)N(C)CC(=O)N[C@@H](CCc2ccc(C(F)(F)F)c(OC)c2)C(=O)N2C[C@H](OCC)C[C@H]2C(=O)N(C)C2(CCC2)C(=O)N(C)[C@@H](C(CC)CC)C(=O)N(C)[C@H](C(=O)N(C)C)CC(=O)N1C [PP2331]	A (a compound having 10 or more and less than 20 is denoted as A)	11.8 nM	AA (a compound having 20 or more is denoted as AA)				
CCCN1C(=O)CN(C)C(=O)CN(C)C(=O)[C@H]([C@@H](C)CC)NC(=O)[C@H](CC(C)C)N(C)C(=O)C[C@@H](C(=O)N2CCCCC2)N(C)C(=O)[C@H](C2CCCC2)N(C)C(=O)C2(CCC2)NC(=O)[C@@H]2CCCN2C(=O)[C@H](CCc2ccc(C(F)(F)F)c(Cl)c2)NC(=O)CN(C)C(=O)[C@@H]1Cc1ccc(C(F)(F)F)cc1 [PP1930] ([NMeL]I[Sar][Sar][NPrPhe(4-CF3)][Sar][hPhe(3-Cl-4-CF3)]P[Ac4c][NMeGly(cPent)][NMeD]-Piperidide; lactam N-11)	C (A compound having a KD ratio of 0.1 or more and less than 3 is denoted as C)	7 nM	B (a compound having 3 or more and less than 10 is denoted as B)				
CC[C@H](C)[C@@H]1NC(=O)[C@H](CC2CC2)N(C)C(=O)C[C@@H](C(=O)N(C)C)N(C)C(=O)[C@H](C2CCCC2)N(C)C(=O)C2(CC(C)(C)C2)NC(=O)[C@@H]2C[C@@H](C(F)(F)F)CN2C(=O)[C@H](CCc2cc(F)c(C(F)(F)F)c(F)c2)NC(=O)CN(C)C(=O)[C@H](Cc2ccc(C(F)(F)F)cc2)N2CC/C=C\C[C@@H](C2=O)N(C)C(=O)CN(C)C1=O [PP1504]		38 nM				A (a compound having 10 or more and less than 20 is denoted as A)	A (a compound having 10 or more and less than 20 is denoted as A)
CCC[C@@H]1C[C@H]2C(=O)NC3(CC(C)(C)C3)C(=O)N(C)[C@@H](C3CCCC3)C(=O)N(C)[C@H](C(=O)N(C)C)CC(=O)N(C)[C@@H](COC)C(=O)N[C@@H]([C@@H](C)CC)C(=O)N(C)CC(=O)N(C)[C@H]3C/C=C\CCN(C3=O)[C@@H](Cc3ccc(C(F)(F)F)cc3)C(=O)N(C)CC(=O)N[C@@H](CCc3ccc(C(F)(F)F)c(Cl)c3)C(=O)N2C1 [PP2275]	A (a compound having 10 or more and less than 20 is denoted as A)	12.2 nM	A (a compound having 10 or more and less than 20 is denoted as A)				
CCCN1C(=O)CN(C)C(=O)[C@@H]2CCN2C(=O)[C@H]([C@@H](C)CC)NC(=O)[C@H](CC(C)C)N(C)C(=O)C[C@@H](C(=O)N2CCOCC2)N(C)C(=O)[C@H](C2CCCC2)N(C)C(=O)C2(CCCC2)NC(=O)[C@@H]2CC(F)(F)CCN2C(=O)[C@H](CCc2ccc(C(F)(F)F)c(Cl)c2)NC(=O)CN(C)C(=O)[C@@H]1Cc1ccc(C(F)(F)F)cc1 [PP0312] ([NMeL]I[Aze][Sar][NPrPhe(4-CF3)][Sar][hPhe(3-Cl-4-CF3)][Pip(4,4-F2)][Ac5c][NMeGly(cPent)][NMeD]-Morpholide; lactam N-11)		82.4 nM		B (a compound having 3 or more and less than 10 is denoted as B)	B (a compound having 3 or more and less than 10 is denoted as B)		
CCO[C@@H]1C[C@H]2C(=O)NC3(CC(C)(C)C3)C(=O)N(C)[C@@H](C(CC)CC)C(=O)N3CCC[C@@H]3CC(=O)N(C)[C@@H](CC)C(=O)N[C@@H]([C@@H](C)CC)C(=O)N(C)CC(=O)N(C)[C@H]3C/C=C\CCN(C3=O)[C@@H](Cc3ccc(C(F)(F)F)cc3)C(=O)N(C)CC(=O)N[C@@H](CCc3cc(F)c(C(F)(F)F)c(F)c3)C(=O)N2C1 [PP1605]		31.6 nM				A (a compound having 10 or more and less than 20 is denoted as A)	A (a compound having 10 or more and less than 20 is denoted as A)
CC[C@H](C)[C@@H]1NC(=O)[C@H](CC)N(C)C(=O)C[C@@H](C(=O)N(C)C)N(C)C(=O)[C@H](C2CCCC2)N(C)C(=O)C2(CC(C)(C)C2)NC(=O)[C@H](CC)N(C)C(=O)[C@H](CCc2cc(F)c(C(F)(F)F)c(F)c2)NC(=O)CN(C)C(=O)[C@H](Cc2ccc(C(F)(F)F)cc2)N2CC/C=C\C[C@@H](C2=O)N(C)C(=O)CN(C)C1=O [PP1935]	A (a compound having 10 or more and less than 20 is denoted as A)	13.1 nM	A (a compound having 10 or more and less than 20 is denoted as A)				
C=CC[C@H]1C(=O)N[C@@H]([C@@H](C)CC)C(=O)N(C)CC(=O)N(C)[C@H]2CCCCN(C2=O)[C@@H](Cc2ccc(C(F)(F)F)cc2)C(=O)N(C)CC(=O)N[C@@H](CCc2cc(F)c(C(F)(F)F)c(F)c2)C(=O)N2C[C@H](OCC)C[C@H]2C(=O)N[C@](C)(CC=C)C(=O)N(C)[C@@H](C2CCCC2)C(=O)N(C)[C@H](C(=O)N2CCOCC2)CC(=O)N1C [PP0874]		4.9 nM		B (a compound having 3 or more and less than 10 is denoted as B)	C (A compound having a KD ratio of 0.1 or more and less than 3 is denoted as C)		
CCCN1C(=O)CN(C)C(=O)CN(C)C(=O)[C@H]([C@@H](C)CC)NC(=O)[C@H](CC(C)C)N(C)C(=O)C[C@@H](C(=O)N2CCOCC2)N(C)C(=O)[C@H](C2CCCCC2)N(C)C(=O)C2(CCC2)NC(=O)[C@@H]2CCCN2C(=O)[C@H](CCc2ccc(C(F)(F)F)c(Cl)c2)NC(=O)CN(C)C(=O)[C@@H]1Cc1ccc(C(F)(F)F)cc1 [PP1928] ([NMeL]I[Sar][Sar][NPrPhe(4-CF3)][Sar][hPhe(3-Cl-4-CF3)]P[Ac4c][NMeChg][NMeD]-Morpholide; lactam N-11)	B (a compound having 3 or more and less than 10 is denoted as B)	18.4 nM	B (a compound having 3 or more and less than 10 is denoted as B)				
CCC[C@H]1C(=O)N[C@@H]([C@@H](C)CC)C(=O)N(C)CC(=O)N(C)[C@H]2C/C=C\CCN(C2=O)[C@@H](Cc2ccc(C(F)(F)F)cc2)C(=O)N(C)CC(=O)N[C@@H](CCc2ccc(C(F)(F)F)c(Cl)c2)C(=O)N2C[C@H](OCC)C[C@H]2C(=O)NC2(CC(C)(C)C2)C(=O)N(C)[C@@H](CC(C)C)C(=O)N(C)[C@H](C(=O)N(C)C)CC(=O)N1C [PP2977]		8.1 nM		A (a compound having 10 or more and less than 20 is denoted as A)	A (a compound having 10 or more and less than 20 is denoted as A)		
